Experimental data published in patent publication US20060063759A1, “Tricyclic steroid hormone nuclear receptor modulators” (priority 2002, published 2006).

Columns and labels:
[1] = target: T1, glucocorticoid receptor (Homo sapiens, UniProt P04150); test: Glucocorticoid Receptor Binding Assay ([3H]-dexamethasone, A549 cell extract); conditions: [3H]-dexamethasone binding, read-out: GR Ki
T1 construct: containing 50-200 ug of A549 cell extract and 1.86 nM [^3H]-dexamethasone; host or cells: A549 human lung epithelial cells (sonicated cell extract)
T1 sequence (P04150 1-777): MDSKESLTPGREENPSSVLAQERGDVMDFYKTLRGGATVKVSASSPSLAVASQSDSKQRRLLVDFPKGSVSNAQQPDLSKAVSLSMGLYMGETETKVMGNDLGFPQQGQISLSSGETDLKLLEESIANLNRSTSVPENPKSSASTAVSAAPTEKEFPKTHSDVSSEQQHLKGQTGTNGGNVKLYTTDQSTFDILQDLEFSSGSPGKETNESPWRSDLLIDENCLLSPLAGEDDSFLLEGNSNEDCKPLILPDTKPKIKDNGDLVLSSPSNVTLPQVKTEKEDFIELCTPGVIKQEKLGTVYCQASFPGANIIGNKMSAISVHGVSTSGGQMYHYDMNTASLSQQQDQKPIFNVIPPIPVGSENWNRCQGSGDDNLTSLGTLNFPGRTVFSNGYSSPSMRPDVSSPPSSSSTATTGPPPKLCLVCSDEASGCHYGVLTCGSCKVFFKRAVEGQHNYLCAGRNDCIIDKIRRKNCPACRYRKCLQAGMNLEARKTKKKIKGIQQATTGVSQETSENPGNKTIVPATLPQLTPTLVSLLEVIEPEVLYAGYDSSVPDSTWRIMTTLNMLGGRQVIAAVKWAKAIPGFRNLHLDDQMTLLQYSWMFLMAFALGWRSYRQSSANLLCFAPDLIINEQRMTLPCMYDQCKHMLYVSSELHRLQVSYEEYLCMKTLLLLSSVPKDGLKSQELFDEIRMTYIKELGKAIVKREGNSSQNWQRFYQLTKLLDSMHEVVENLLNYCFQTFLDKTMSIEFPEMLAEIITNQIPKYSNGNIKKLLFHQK
Summary of the method: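 Displacement of [3H]-dexamethasone (1.86 nM) from glucocorticoid receptor in sonicated A549 lung epithelial cell extracts, 16 h at 4 °C, pH 7.2 molybdate-containing buffer. Bound radioactivity was scintillation-counted after charcoal/dextran stripping of free ligand.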

[2] = target: T2, human MR (Homo sapiens, UniProt P08235); test: Mineralocorticoid Receptor Binding Assay ([3H]-aldosterone); conditions: [3H]-aldosterone binding, human MR expressed in Sf9 cells; read-out: MR Ki
T2 construct: The full length human MR gene is cloned from a human kidney or human brain cDNA library; His tag from the pAcHLT vector (own knowledge); made in house; host or cells: Sf9 insect cells (baculovirus, pAcHLT transfer vector)
T2 sequence (P08235 1-984): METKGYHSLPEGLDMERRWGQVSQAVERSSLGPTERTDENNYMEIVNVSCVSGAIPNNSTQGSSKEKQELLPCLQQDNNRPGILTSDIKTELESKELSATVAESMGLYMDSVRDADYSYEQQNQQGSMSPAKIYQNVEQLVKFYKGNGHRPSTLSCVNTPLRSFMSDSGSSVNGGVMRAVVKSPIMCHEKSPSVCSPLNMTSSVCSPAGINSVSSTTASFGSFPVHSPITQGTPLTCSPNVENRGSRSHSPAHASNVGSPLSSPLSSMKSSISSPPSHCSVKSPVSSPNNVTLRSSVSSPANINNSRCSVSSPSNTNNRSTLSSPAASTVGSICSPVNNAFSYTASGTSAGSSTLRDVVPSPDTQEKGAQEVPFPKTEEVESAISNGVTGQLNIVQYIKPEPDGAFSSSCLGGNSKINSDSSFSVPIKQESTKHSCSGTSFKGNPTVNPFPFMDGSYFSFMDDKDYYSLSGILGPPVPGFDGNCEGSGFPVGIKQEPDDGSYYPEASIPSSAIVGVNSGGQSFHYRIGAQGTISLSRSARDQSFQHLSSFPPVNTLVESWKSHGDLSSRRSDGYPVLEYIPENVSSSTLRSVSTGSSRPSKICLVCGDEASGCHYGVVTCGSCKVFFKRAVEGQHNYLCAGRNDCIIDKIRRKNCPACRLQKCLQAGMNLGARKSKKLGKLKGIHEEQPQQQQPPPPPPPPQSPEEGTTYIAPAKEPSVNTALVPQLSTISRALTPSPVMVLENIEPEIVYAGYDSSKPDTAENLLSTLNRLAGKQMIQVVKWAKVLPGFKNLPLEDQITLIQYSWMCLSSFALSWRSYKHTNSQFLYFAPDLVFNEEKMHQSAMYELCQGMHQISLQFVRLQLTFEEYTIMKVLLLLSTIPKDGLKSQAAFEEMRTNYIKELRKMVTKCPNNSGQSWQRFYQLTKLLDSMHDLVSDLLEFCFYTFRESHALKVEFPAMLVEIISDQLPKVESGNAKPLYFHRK
Summary of the method: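 Receptor source: freeze-thaw lysate of baculovirus-infected Sf9 cells carrying full-length human MR, 20-25 μg protein. Incubation ~16 h at 4 °C with shaking, pH 7.5 buffer containing 30 mM sodium molybdate and 10% glycerol.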

| Compound | Ki [1] | Ki [2] |
| --- | --- | --- |
| COc1ccc2c(c1)CCc1ccccc1C2=Cc1cccc(NS(C)(=O)=O)c1 [Example 161, N-[3-(2-Methoxy-10,11-dihydro-dibenzo[a,d]cyclohepten-5-ylidenemethyl)-phenyl]-methanesulfonamide] | < 0.5 µM | < 0.5 µM |
| COc1cc2c(cc1OC)C(=Cc1cccc(NS(C)(=O)=O)c1)c1ccccc1CC2 [Example 170(a), N-[3-(2,3-Dimethoxy-10,11-dihydro-dibenzo[a,d]cyclohepten-5-ylidenemethyl)-phenyl]-methanesulfonamide] | < 1 µM | < 0.5 µM |
| COc1cc2c(cc1OC)C(=Cc1cccc(NS(C)(=O)=O)c1)c1ccccc1CC2 [Example 170(b), N-[3-(2,3-Dimethoxy-10,11-dihydro-dibenzo[a,d]cyclohepten-5-ylidenemethyl)-phenyl]-methanesulfonamide] | < 0.5 µM | < 0.5 µM |
| Oc1cccc(C=C2c3ccc(Cl)cc3CCc3cc(Cl)ccc32)c1 [Example 183, 3-(2,8-Dichloro-10,11-dihydro-dibenzo[a,d]cyclohepten-5-ylidenemethyl)-phenol] | < 0.5 µM | < 0.5 µM |
| Oc1cccc(CC2c3ccccc3CCc3c(F)cccc32)c1 (stereo not shown) [Example 186, 3-(1-Fluoro-10,11-dihydro-5H-dibenzo[a,d]cyclohepten-5-ylmethyl)-phenol] | < 0.5 µM | < 0.5 µM |
| CS(=O)(=O)Nc1cccc(CC2c3ccccc3CCc3c(F)cccc32)c1 (stereo not shown) [Example 187, N-[3-(1-Fluoro-10,11-dihydro-5H-dibenzo[a,d]cyclohepten-5-ylmethyl)-phenyl]-methanesulfonamide] | < 0.5 µM | < 0.5 µM |
| CS(=O)(=O)Nc1cccc(CC2c3ccccc3CCc3ccc(Cl)cc32)c1 (stereo not shown) [Example 189, N-[3-(3-Chloro-10,11-dihydro-5H-dibenzo[a,d]cyclohepten-5-ylmethyl)-phenyl]-methanesulfonamide] | < 0.5 µM | < 0.5 µM |
| CS(=O)(=O)Nc1cccc(C=C2c3ccc(O)cc3CCc3cc(O)ccc32)c1 [Example 192, N-[3-(2,8-Dihydroxy-10,11-dihydro-dibenzo[a,d]cyclohepten-5-ylidenemethyl)-phenyl]-methanesulfonamide] | < 0.5 µM | < 0.5 µM |
| COc1ccc2c(c1)CCc1cc(OC)ccc1C2=Cc1cccc(O)c1 [Example 193, 3-(2,8-Dimethoxy-10,11-dihydro-dibenzo[a,d]cyclohepten-5-ylidenemethyl)-phenol] | < 0.5 µM | < 0.5 µM |
| Oc1cccc(C=C2c3ccc(O)cc3CCc3cc(O)ccc32)c1 [Example 194, 5-(3-Hydroxy-benzylidene)-10,11-dihydro-5H-dibenzo[a,d]cycloheptene-2,8-diol] | < 0.5 µM | < 0.5 µM |
| CS(=O)(=O)Nc1cccc(/C=C2\c3ccccc3CCc3cc(OCCN4CCOCC4)ccc32)c1 [Example 196, N-{3-[2-(2-Morpholin-4-yl-ethoxy)-10,11-dihydro-dibenzo[a,d]cyclohepten-5-ylidenemethyl]-phenyl}-methanesulfonamide] | < 0.5 µM | < 0.5 µM |
| CS(=O)(=O)Nc1cccc(C=C2c3cccc(F)c3CCc3c(F)cccc32)c1 [Example 201, N-[3-(1,9-Difluoro-10,11-dihydro-dibenzo[a,d]cyclohepten-5-ylidenemethyl)-phenyl]-methanesulfonamide] | < 0.5 µM | < 0.5 µM |
| CS(=O)(=O)Nc1cccc(C=C2c3ccccc3CCc3c(Cl)cccc32)c1 [Example 205(b), N-[3-(1-Chloro-10,11-dihydro-dibenzo[a,d]cyclohepten-5-ylidenemethyl)-phenyl]-methanesulfonamide] | < 0.5 µM | < 0.5 µM |
| CCS(=O)(=O)Nc1cccc(C=C2c3ccccc3CCc3c(Cl)cccc32)c1 [Example 208(b), Ethanesulfonic acid [3-(1-chloro-10,11-dihydro-dibenzo[a,d]cyclohepten-5-ylidenemethyl)-phenyl]-amide] | < 0.5 µM | < 0.5 µM |
| O=c1[nH]c2cc(C=C3c4ccccc4CCc4ccccc43)ccc2o1 [Example 216, 5-(10,11-Dihydro-dibenzo[a,d]cyclohepten-5-ylidenemethyl)-3H-benzooxazol-2-one] | < 0.5 µM | < 0.5 µM |
| O=c1[nH]c2cc(/C=C3/c4ccccc4CCc4c(Cl)cccc43)ccc2o1 [Example 221(a)] | < 0.5 µM | < 0.5 µM |
| O=c1[nH]c2cc(/C=C3\c4ccccc4CCc4c(Cl)cccc43)ccc2o1 [Example 221(b)] | < 0.5 µM | < 0.5 µM |

Continued, values first:

| Ki [1] | Ki [2] | Compound |
| --- | --- | --- |
| < 1 µM | < 0.5 µM | FC(F)(F)c1ccccc1C=C1c2ccccc2CCc2cc(Cl)ccc21 [Example 174, 2-Chloro-5-(2-trifluoromethyl-benzylidene)-10,11-dihydro-5H-dibenzo[a,d]cycloheptene] |
| < 10 µM | < 0.5 µM | Cc1ccccc1C=C1c2ccccc2CCc2cc(Cl)ccc21 [Example 175, 2-Chloro-5-(2-methyl-benzylidene)-10,11-dihydro-5H-dibenzo[a,d]cycloheptene] |
| < 1 µM | < 0.5 µM | Cc1cccc(C=C2c3ccccc3CCc3cc(Cl)ccc32)c1 [Example 177, 2-Chloro-5-(3-methyl-benzylidene)-10,11-dihydro-5H-dibenzo[a,d]cycloheptene] |
| < 1 µM | < 0.5 µM | Oc1ccc(C=C2c3ccccc3CCc3cc(Cl)ccc32)cc1 [Example 180, 4-(2-Chloro-10,11-dihydro-dibenzo[a,d]cyclohepten-5-ylidenemethyl)-phenol] |
| < 10 µM | < 0.5 µM | C(=C1c2ccccc2CCc2ccccc21)c1ccc2ocnc2c1 [Example 217, 5-(10,11-Dihydro-dibenzo[a,d]cyclohepten-5-ylidenemethyl)-benzooxazole] |
| < 1 µM | < 0.5 µM | Cc1nc2cc(C=C3c4ccccc4CCc4ccccc43)ccc2o1 [Example 218, 5-(10,11-Dihydro-dibenzo[a,d]cyclohepten-5-ylidenemethyl)-2-methyl-benzooxazole] |
| < 1 µM | < 0.5 µM | C(=C1c2ccccc2CCc2ccccc21)c1ccc2cc[nH]c2c1 [Example 219, 6-(10,11-Dihydro-dibenzo[a,d]cyclohepten-5-ylidenemethyl)-1H-indole] |
| < 10 µM | < 0.5 µM | C(=C1c2ccccc2CCc2ccccc21)c1cccc2[nH]ccc12 [Example 220, 4-(10,11-Dihydro-dibenzo[a,d]cyclohepten-5-ylidenemethyl)-1H-indole] |
| < 0.5 µM | < 0.5 µM | O=c1[nH]c2cc(C=C3c4ccccc4CCc4cc(Cl)ccc43)ccc2o1 [Example 222(a), 5-(2-Chloro-10,11-dihydro-dibenzo[a,d]cyclohepten-5-ylidenemethyl)-3H-benzooxazol-2-one] |
